Experiments:
Test in all cases: Kinase profiling
Format in all cases: binding
Conditions in all cases: read-out: % Ctrl @ 1000 nM
ABL1-nonphosphorylated = ABL1-nonphosphorylated (Homo sapiens, UniProt P00519)
ACVR2B = ACVR2B (Homo sapiens, UniProt Q13705)
ADCK4 = ADCK4 (Homo sapiens, UniProt Q96D53)
AURKA = AURKA (Homo sapiens, UniProt O14965)
BRSK2 = BRSK2 (Homo sapiens, UniProt Q8IWQ3)
CAMK4 = CAMK4 (Homo sapiens, UniProt Q16566)
CDC2L2 = CDC2L2 (Homo sapiens, UniProt Q9UQ88)
CSF1R-autoinhibited = CSF1R-autoinhibited (Homo sapiens, UniProt P07333)
DAPK1 = DAPK1 (Homo sapiens, UniProt P53355)
DCAMKL1 = DCAMKL1 (Homo sapiens, UniProt O15075)
DMPK2 = DMPK2 (Homo sapiens, UniProt Q6DT37)
ERBB4 = ERBB4 (Homo sapiens, UniProt Q15303)
GRK4 = GRK4 (Homo sapiens, UniProt P32298)
GSK3A = GSK3A (Homo sapiens, UniProt P49840)
HCK = HCK (Homo sapiens, UniProt P08631)
[1] = biological target: JAK1 (JH1domain-catalytic) (Homo sapiens, UniProt P23458)
LATS2 = LATS2 (Homo sapiens, UniProt Q9NRM7)
LTK = LTK (Homo sapiens, UniProt P29376)
LYN = LYN (Homo sapiens, UniProt P07948)
MAP3K1 = MAP3K1 (Homo sapiens, UniProt Q13233)
MLCK = biological target: T1, MLCK (Homo sapiens, UniProt Q32MK0)
T1 construct: T7 phage fusion (stated for most kinases of the panel only); made in house; host or cells: T7 phage in E. coli (BL21-derived) or HEK-293 cells

MRCKB = biological target: T2, MRCKB (Homo sapiens, UniProt Q9Y5S2)
T2 construct: T7 phage fusion (stated for most kinases of the panel only); made in house; host or cells: T7 phage in E. coli (BL21-derived) or HEK-293 cells

MST2 = biological target: T3, MST2 (Homo sapiens, UniProt Q13188)
T3 construct: T7 phage fusion (stated for most kinases of the panel only); made in house; host or cells: T7 phage in E. coli (BL21-derived) or HEK-293 cells

NEK1 = biological target: T4, NEK1 (Homo sapiens, UniProt Q96PY6)
T4 construct: T7 phage fusion (said for most assays); made in house

NEK2 = biological target: T5, NEK2 (Homo sapiens, UniProt P51955)
T5 construct: T7 phage fusion (said for most assays); made in house

NEK9 = biological target: T6, NEK9 (Homo sapiens, UniProt Q8TD19)
T6 construct: T7 phage fusion (said for most assays); made in house

PAK3 = PAK3 (Homo sapiens, UniProt O75914)
PHKG1 = PHKG1 (Homo sapiens, UniProt Q16816)
PIM2 = PIM2 (Homo sapiens, UniProt Q9P1W9)
PIM3 = PIM3 (Homo sapiens, UniProt Q86V86)
PKN1 = PKN1 (Homo sapiens, UniProt Q16512)
PRKD2 = PRKD2 (Homo sapiens, UniProt Q9BZL6)
PRKG2 = PRKG2 (Homo sapiens, UniProt Q13237)
[2] = biological target: RPS6KA5 (Kin.Dom.1-N-terminal) (Homo sapiens, UniProt O75582)
[3] = biological target: RSK3 (Kin.Dom.2-C-terminal) (Homo sapiens, UniProt Q15349)
SRMS = SRMS (Homo sapiens, UniProt Q9H3Y6)
SRPK1 = SRPK1 (Homo sapiens, UniProt Q96SB4)
TBK1 = TBK1 (Homo sapiens, UniProt Q9UHD2)
TRKA = TRKA (Homo sapiens, UniProt P04629)
VPS34 = VPS34 (Homo sapiens, UniProt Q8NEB9)

DMPK2, sequence (Q6DT37 whole entry): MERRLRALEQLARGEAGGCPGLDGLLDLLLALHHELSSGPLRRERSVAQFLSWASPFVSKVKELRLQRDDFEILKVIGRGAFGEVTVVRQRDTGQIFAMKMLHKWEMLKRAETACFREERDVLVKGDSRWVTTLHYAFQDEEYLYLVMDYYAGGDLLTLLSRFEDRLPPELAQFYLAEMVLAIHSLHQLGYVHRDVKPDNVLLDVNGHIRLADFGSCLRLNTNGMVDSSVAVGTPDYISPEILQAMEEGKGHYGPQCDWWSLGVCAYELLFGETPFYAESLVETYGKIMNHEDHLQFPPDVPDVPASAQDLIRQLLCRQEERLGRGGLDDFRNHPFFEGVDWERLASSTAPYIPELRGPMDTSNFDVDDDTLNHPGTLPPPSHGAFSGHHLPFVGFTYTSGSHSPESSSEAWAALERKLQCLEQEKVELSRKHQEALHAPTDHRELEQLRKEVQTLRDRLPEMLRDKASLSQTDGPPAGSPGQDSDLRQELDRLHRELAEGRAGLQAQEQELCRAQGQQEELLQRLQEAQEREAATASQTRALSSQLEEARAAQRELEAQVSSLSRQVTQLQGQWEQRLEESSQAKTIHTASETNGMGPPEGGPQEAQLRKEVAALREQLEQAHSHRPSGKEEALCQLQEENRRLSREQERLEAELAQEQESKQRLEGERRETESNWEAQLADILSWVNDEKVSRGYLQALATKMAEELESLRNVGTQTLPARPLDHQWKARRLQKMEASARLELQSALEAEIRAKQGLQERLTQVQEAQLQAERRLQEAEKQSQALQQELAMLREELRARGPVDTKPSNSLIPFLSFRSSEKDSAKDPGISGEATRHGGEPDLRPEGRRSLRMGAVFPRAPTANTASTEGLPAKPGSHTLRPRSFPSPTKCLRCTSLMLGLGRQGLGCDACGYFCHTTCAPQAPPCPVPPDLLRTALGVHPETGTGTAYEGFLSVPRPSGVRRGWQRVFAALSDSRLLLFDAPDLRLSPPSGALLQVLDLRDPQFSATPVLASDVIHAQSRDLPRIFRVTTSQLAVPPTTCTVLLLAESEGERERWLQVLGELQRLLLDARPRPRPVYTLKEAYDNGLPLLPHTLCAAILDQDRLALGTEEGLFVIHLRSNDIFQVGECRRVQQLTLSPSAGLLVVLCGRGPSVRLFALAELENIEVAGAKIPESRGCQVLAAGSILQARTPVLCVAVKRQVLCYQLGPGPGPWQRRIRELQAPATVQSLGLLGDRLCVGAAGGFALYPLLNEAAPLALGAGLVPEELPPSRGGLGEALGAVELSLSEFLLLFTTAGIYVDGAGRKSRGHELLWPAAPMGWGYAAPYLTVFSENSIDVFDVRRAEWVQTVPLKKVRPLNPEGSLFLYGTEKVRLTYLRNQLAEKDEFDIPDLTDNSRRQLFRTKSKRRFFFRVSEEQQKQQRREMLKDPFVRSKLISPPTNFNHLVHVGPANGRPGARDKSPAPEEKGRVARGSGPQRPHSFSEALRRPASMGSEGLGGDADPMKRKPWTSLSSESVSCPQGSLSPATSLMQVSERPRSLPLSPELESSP
T3 sequence (Q13188 whole entry, the tested form may be a part): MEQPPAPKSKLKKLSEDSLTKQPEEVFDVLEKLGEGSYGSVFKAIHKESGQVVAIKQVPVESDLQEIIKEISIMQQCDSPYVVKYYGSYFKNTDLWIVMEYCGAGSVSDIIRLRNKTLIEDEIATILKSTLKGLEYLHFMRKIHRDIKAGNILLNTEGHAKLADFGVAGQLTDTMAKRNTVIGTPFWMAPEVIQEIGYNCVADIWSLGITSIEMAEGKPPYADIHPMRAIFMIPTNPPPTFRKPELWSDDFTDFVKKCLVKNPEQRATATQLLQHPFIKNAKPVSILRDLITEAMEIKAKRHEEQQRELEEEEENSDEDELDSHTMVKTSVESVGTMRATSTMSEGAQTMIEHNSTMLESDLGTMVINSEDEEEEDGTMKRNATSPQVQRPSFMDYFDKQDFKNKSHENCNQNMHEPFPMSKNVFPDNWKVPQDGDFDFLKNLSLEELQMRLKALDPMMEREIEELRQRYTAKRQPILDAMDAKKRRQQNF
SRPK1, sequence (Q96SB4 whole entry): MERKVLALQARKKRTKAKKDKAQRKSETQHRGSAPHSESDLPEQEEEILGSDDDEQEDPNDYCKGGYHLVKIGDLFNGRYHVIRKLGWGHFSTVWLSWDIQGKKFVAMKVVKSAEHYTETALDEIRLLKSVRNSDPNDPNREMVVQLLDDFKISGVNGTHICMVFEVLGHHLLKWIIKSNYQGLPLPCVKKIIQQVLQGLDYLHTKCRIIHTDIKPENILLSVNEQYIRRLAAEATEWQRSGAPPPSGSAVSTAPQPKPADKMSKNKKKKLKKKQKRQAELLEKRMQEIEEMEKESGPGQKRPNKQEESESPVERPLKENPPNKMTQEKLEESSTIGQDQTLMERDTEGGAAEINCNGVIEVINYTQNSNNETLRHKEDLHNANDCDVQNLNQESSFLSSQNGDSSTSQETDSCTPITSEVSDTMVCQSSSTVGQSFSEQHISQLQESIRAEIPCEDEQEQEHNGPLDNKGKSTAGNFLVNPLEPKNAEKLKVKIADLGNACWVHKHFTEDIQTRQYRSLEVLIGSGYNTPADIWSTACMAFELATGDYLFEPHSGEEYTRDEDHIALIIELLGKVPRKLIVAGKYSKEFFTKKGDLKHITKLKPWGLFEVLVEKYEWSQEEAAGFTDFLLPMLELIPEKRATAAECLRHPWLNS
PRKG2, sequence (Q13237 whole entry): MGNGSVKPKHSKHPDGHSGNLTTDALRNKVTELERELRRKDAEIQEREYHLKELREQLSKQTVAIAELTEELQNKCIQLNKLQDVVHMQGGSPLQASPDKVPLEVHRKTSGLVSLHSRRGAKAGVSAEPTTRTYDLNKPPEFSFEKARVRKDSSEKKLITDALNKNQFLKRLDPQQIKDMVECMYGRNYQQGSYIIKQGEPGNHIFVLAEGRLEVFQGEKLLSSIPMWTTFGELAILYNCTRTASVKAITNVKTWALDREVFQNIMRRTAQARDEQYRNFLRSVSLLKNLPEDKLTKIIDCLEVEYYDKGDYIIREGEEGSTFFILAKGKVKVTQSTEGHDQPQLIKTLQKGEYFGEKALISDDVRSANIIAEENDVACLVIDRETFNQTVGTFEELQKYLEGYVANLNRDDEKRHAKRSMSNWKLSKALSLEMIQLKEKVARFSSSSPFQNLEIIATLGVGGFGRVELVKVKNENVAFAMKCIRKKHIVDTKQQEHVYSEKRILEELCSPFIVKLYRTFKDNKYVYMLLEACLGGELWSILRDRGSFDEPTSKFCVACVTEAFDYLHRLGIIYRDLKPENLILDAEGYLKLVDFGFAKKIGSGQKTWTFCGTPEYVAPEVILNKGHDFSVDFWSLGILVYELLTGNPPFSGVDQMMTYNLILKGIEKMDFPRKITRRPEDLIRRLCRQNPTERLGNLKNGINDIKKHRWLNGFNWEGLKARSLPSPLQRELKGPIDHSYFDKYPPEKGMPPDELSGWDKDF
T5 sequence (P51955 whole entry, the tested form may be a part): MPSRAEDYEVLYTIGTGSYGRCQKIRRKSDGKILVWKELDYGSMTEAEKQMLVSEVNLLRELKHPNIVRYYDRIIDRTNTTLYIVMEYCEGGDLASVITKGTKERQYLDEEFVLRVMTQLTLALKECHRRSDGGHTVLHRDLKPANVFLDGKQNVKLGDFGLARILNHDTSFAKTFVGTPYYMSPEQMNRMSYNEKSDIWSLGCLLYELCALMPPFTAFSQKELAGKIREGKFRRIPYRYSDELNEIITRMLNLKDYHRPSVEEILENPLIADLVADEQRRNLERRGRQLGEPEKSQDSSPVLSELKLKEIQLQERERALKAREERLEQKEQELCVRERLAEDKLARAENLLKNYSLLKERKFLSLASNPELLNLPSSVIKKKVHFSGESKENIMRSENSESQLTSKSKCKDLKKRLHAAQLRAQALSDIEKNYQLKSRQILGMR
PHKG1, sequence (Q16816 whole entry): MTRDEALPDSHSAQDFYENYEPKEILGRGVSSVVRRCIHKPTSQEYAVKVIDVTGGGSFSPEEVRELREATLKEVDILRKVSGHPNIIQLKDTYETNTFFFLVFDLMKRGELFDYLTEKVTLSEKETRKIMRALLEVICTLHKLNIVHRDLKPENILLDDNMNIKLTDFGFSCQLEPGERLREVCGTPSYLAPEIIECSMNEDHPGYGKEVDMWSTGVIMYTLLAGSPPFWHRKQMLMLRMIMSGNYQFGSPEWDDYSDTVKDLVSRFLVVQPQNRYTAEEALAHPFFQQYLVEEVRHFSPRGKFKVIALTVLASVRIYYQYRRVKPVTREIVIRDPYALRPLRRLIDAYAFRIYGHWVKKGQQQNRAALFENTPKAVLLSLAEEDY
HCK, sequence (P08631 whole entry): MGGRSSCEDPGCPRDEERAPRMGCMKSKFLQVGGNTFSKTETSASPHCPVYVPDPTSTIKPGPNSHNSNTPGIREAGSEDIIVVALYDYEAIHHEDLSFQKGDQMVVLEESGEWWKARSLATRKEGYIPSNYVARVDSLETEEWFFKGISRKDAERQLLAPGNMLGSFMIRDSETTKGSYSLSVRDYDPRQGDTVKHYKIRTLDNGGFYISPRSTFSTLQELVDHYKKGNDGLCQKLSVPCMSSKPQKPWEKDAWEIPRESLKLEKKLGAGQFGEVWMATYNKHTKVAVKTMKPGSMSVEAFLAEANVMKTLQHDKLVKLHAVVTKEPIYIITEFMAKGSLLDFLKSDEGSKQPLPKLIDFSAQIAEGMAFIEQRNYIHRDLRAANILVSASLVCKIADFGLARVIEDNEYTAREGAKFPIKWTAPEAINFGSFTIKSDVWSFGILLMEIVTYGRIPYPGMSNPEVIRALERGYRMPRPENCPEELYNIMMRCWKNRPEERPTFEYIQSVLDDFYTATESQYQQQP

Structure (SMILES): Cc1cc(Oc2cc(NC(=O)C3CC3)ncn2)ccc1NC(=O)Nc1ccc(Cl)c(C(F)(F)F)c1 [CBT-102]
- remaining activity at 1 µM (ABL1-nonphosphorylated): 3.3%
- remaining activity at 1 µM (ACVR2B): 89%
- remaining activity at 1 µM (ADCK4): 88%
- remaining activity at 1 µM (AURKA): 86%
- remaining activity at 1 µM (BRSK2): 100%
- remaining activity at 1 µM (CAMK4): 100%
- remaining activity at 1 µM (CDC2L2): 22%
- remaining activity at 1 µM (CSF1R-autoinhibited): 60%
- remaining activity at 1 µM (DAPK1): 98%
- remaining activity at 1 µM (DCAMKL1): 100%
- remaining activity at 1 µM (DMPK2): 100%
- remaining activity at 1 µM (ERBB4): 100%
- remaining activity at 1 µM (GRK4): 100%
- remaining activity at 1 µM (GSK3A): 18%
- remaining activity at 1 µM (HCK): 54%
- remaining activity at 1 µM [1]: 78%
- remaining activity at 1 µM (LATS2): 100%
- remaining activity at 1 µM (LTK): 100%
- remaining activity at 1 µM (LYN): 20%
- remaining activity at 1 µM (MAP3K1): 83%
- remaining activity at 1 µM (MLCK): 100%
- remaining activity at 1 µM (MRCKB): 100%
- remaining activity at 1 µM (MST2): 92%
- remaining activity at 1 µM (NEK1): 100%
- remaining activity at 1 µM (NEK2): 98%
- remaining activity at 1 µM (NEK9): 96%
- remaining activity at 1 µM (PAK3): 100%
- remaining activity at 1 µM (PHKG1): 96%
- remaining activity at 1 µM (PIM2): 100%
- remaining activity at 1 µM (PIM3): 98%
- remaining activity at 1 µM (PKN1): 100%
- remaining activity at 1 µM (PRKD2): 100%
- remaining activity at 1 µM (PRKG2): 91%
- remaining activity at 1 µM [2]: 100%
- remaining activity at 1 µM [3]: 92%
- remaining activity at 1 µM (SRMS): 99%
- remaining activity at 1 µM (SRPK1): 56%
- remaining activity at 1 µM (TBK1): 98%
- remaining activity at 1 µM (TRKA): 74%
- remaining activity at 1 µM (VPS34): 80%
